“Also recorded” adds a separate entry of the source.
System: taxol induced neuropathic pain model in rats
Assay: Taxol induced neuropathic pain study in rats (Von Frey testing)
Assay type: in vivo, rat
Settings: taxol treated rats, 1, 3, 10 mg/kg PO b.i.d.
Experimental: This study included a histology endpoint in addition to the von Frey testing for paw sensitivity.
Neuropathic pain is induced by a 0.5 ml/kg injection of Taxol (2 mg/kg) administered IP on days 0-12. The development of neuropathic pain is confirmed by measuring mechanical allodynia (Von Frey test) on study day 13.
Allodynic response to tactile stimulation is assessed using the Von Frey apparatus (Touch Test®).
The rat will be placed in an enclosure and positioned on a metal mesh surface, but allowed to move freely. The rats' cabins are covered with red cellophane to diminish environmental disturbances. The test begins after a cessation of exploratory behavior. The set of Von Frey monofilaments provide an approximate logarithmic scale of actual force and a linear scale of perceived intensity.
The operating principle: when the tip of a fiber of given length and diameter is pressed against the skin at right angles, the force of application increases as long as the researcher continues to advance the probe until the fiber bends. After the fiber bends, the probe continues to advance, causing the fiber to bend more, but without additional force being applied. […] The Touch Test™ Sensory Evaluator can be used on the plantar surfaces of the rat's foot. The animal indicates sensation by pulling back its paw. […]

SMILES: O=C(NO)c1cnc(NC2(c3ccccc3)CCC(F)(F)CC2)nc1 [Compound 003]
- Effect on nociception / tactile allodynia (Von Frey): completely reversed nociception; also recorded: reduced tactile allodynia

Source: US9884850B2, “Pyrimidine hydroxy amide compounds as HDAC6 selective inhibitors” (Acetylon Pharmaceuticals, Inc., priority 2014, dated 2018)
